Assay [1] addresses T1, AcpS+4Cys (SlyD tetracysteine sequence […] on AcpS) (Escherichia coli, UniProt P24224).
T1 construct: made in house; host or cells: Cell-free: Expressway in vitro protein synthesis kit, S30 E. coli extract, from a pRSET vector
T1 sequence (P24224 with tags, fused parts or gaps): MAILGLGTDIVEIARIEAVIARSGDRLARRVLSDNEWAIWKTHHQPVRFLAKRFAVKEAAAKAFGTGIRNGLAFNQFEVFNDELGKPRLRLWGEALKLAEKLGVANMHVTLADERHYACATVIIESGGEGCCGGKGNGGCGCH
The experiment in a line: FlAsH-EDT2 labeling of in vitro synthesised protein, SDS-PAGE, UV light box. Type of assay: binding. The following applies: 10 μM in LDS sample buffer, 70° C. 10 minutes; compared with CCPGCC; FIG. 14. An excerpt: A target sequence that includes the SlyD (SEQ. ID NO: 4) tetracysteine sequence, CCGGKGNGGCGC (SEQ. ID NO: 5) was introduced onto the Carboxy-terminus of Acyl Carrier Protein S (AcpS). Since AcpS has only one endogenous cysteine amino acid and since AcpS is a robust stable protein, a substitution at the Carboxy-terminus could be made without altering the solubility of the properly folded protein. […] ID NO: 6. The mutated AcpS is referred to as AcpS+4Cys. The substitutions were generated using polymerase chain reaction with primers specific for the encoding the expression of the desired tetracysteine sequence. The nucleic acid sequence encoding the cysteine substituted AcpS was inserted into the pRSET vector (Invitrogen, Carlsbad, Calif., Catalog #V351-20) using restriction sites inherent to the vector's multiple cloning site. After amplification in DH5 bacteria, the vector was expressed using in vitro transcription and translation. See also, U.S. Provisional Patent Application No. 60/614,590, filed Oct. 1, 2004 and U.S. patent application Ser. No. 10/954,951, filed Oct. 1, 2004, incorporated by reference herein in their entireties, disclosing additional compositions and methods for in vitro transcription and translation.
In vitro protein synthesis was carried out using the Expressway™ in vitro protein synthesis kit (Invitrogen, Carlsbad, Calif., Catalog #K9600-02). […]

Assay [2] has as its target T2, ACP-CCPGCC (tetracysteine version of Acyl Carrier protein) (Escherichia coli, UniProt P0A6A8).
T2 construct: made in house; host or cells: Cell-free: Expressway in vitro protein synthesis kit (S30 E. coli extract)
The assay is described as above. Format: binding. The following applies: 10 μM in LDS sample buffer, 70° C. 10 minutes; control; FIG. 14. As to the method: In vitro protein synthesis was carried out using the Expressway™ in vitro protein synthesis kit (Invitrogen, Carlsbad, Calif., Catalog #K9600-02). Following the manufacture's protocol 1 μg of AcpS vector DNA was added to a total volume of 50 μL of S30 E. coli extract and reaction buffer. As a control, a tetracysteine (CCPGCC) (SEQ. ID NO: 53) version of Acyl Carrier protein (ACP) (SEQ. ID NO: 7) was also expressed via the Expressway™ kit. The reaction was placed at 37° C. with 225 rpm shaking for two hours. After incubation 5 μL of RNase A was added to the reaction, after which an additional 15 minute incubation at 37° C. was performed. Protein from the in vitro protein synthesis reaction was prepared for SDS-PAGE analysis through an acetone precipitation procedure. 5 μl of reaction was added to 20 μL of 100% acetone. After mixing well the acetone solution was centrifuged for 5 minutes at room temperature in a microcentrifuge at 12,000 rpm. The supernatant was removed and the pellet was allowed to dry for 5 minutes. The pellet was resuspended in a 50 μL volume of LDS sample buffer (Invitrogen, Carlsbad, Calif., Catalog #NP0007) containing 10 μM FlAsH-EDT2. The samples were heated to 70° C. for 10 minutes and 10 μL of the samples were then loaded onto a 4-12% NUPAGE® pre-cast gel (Invitrogen, Carlsbad, Calif.) using MES running buffer. […]

The target in the next assay is T3, SlyD+His tag (Escherichia coli, UniProt P0A9K9).
T3 construct: Lane 1 is full length, hexahistidine tagged SlyD (SlyD+His tag); made in house; host or cells: Cell-free: Expressway in vitro protein synthesis kit (S30 E. coli extract)
T3 sequence (P0A9K9 with tags, fused parts or gaps): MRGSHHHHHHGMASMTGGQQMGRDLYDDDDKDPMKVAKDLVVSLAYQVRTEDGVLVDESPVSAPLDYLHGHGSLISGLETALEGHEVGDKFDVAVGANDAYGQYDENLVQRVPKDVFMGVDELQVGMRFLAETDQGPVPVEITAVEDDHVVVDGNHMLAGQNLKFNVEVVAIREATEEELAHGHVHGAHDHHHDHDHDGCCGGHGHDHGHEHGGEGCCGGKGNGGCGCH
Description: Binding mode: FlAsH-EDT2 labeling of in vitro synthesised SlyD versions, SDS-PAGE. The following applies: 10 μM in LDS sample buffer; FIG. 15. As to the method:
(§1) The mode of binding of a biarsenical to a target sequence was examined using the Expressway™ in vitro protein synthesis kit (Invitrogen, Carlsbad, Calif.) and SDS-PAGE. Following the manufacture's protocol 1 μg of SlyD+His tag (SEQ. ID NO: 8), SlyD-C167A/C168A (SEQ. ID NO: 9), and SlyD-trunc171 (SEQ. ID NO: 10) vector DNAs were added to a total volume of 50 μL of S30 E. coli extract and reaction buffer. The reaction was placed at 37° C. with 225 rpm shaking for two hours. After incubation 5 μL of RNase A was added to the reaction, after which an additional 15 minute incubation at 37° C. was performed. Protein from the in vitro protein synthesis reaction was prepared for SDS-PAGE analysis through an acetone precipitation procedure. 5 μl of reaction was added to 20 μL of 100% acetone. After mixing well the acetone solution was centrifuged for 5 minutes at room temperature in a microcentrifuge at 12,000 rpm. The supernatant was removed and the pellet was allowed to dry for 5 minutes. The pellet was resuspended in a 50 μL volume of LDS sample buffer (Invitrogen, Carlsbad, Calif.) containing 10 μM FlAsH-EDT2. The samples were heated to 70° C. for 10 minutes and 10 μL of the samples were then loaded onto a 4-12% NuPAGE® pre-cast gel (Invitrogen, Carlsbad, Calif., Catalog #NP0239 Box) using MES running buffer. The gel was electrophoresed at 200 volts for about 30 minutes. Immediately following electrophoresis the gel was removed from the cassette and visualized on a UV light box.

The target in a further assay is T4, SlyD-C167A/C168A (Escherichia coli, UniProt P0A9K9, C167A/C168A).
T4 construct: Lane 2 is full length, hexahistidine tagged SlyD with two point mutations; made in house; host or cells: Cell-free: Expressway in vitro protein synthesis kit (S30 E. coli extract)
T4 sequence (P0A9K9 with tags, fused parts or gaps C167A/C168A): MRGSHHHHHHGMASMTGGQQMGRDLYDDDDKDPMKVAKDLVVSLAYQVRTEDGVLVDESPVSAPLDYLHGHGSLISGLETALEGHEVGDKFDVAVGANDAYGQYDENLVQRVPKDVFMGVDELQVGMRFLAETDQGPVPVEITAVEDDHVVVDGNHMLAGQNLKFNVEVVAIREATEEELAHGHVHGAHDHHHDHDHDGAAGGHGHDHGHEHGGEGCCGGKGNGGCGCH
The description is as above. The following applies: 10 μM in LDS sample buffer; FIG. 15. As to the method:
as §1

Another assay addresses T5, SlyD-trunc171 (Escherichia coli, UniProt P0A9K9).
T5 construct: a hexahistidine tagged version of SlyD truncated after position 171 (SlyD-trunc171); made in house; host or cells: Cell-free: Expressway in vitro protein synthesis kit (S30 E. coli extract)
Described as above. The following applies: 10 μM in LDS sample buffer; FIG. 15. As to the method:
as §1

For assay [3], the target named is T6, SlyD+His tag (SlyD tetracysteine sequence) (Escherichia coli, UniProt P0A9K9).
T6 construct: made in house; host or cells: E. coli BL21 (DE3), pRSET vector, Ni-NTA purified
T6 sequence (P0A9K9 with tags, fused parts or gaps): as the sequence (P0A9K9 with tags, fused parts or gaps C167A/C168A) above, with A200C, A201C counted along it
Description: Specificity: labeling of a mixture of purified proteins, SDS-PAGE, laser gel scanner. Format: binding. The following applies: 10 μM in SDS-PAGE sample buffer; ACP:SlyD approximately 2:1; FIG. 17. As to the method: The native SlyD sequence (SEQ. ID NO: 4) was cloned into the pRSET vector (Invitrogen, Carlsbad, Calif.) using standard molecular biology techniques. Purified protein was produced from this vector by first transforming BL21 (DE3) cells (Invitrogen, Carlsbad, Calif., Catalog #C6010-03) and plated on LB-ampicillin plates. A single colony was selected and grown in one liter of liquid LB broth to a density of 1 O.D. and 1 mM IPTG was added to induce protein expression. After three hours of protein induction the culture was harvested by centrifugation at 10,000×g for 5 minutes at 4° C. The cell pellet was resuspended in 50 mM HEPES (pH 7.5), 140 mM NaCl and sonicated on ice for a total of two minutes. The E. coli lysate was separated by centrifugation at 25,000×g for 20 minutes at 4° C. The supernatant contained the soluble protein and consequently it was loaded onto a Ni^2+-NTA column equilibrated in 50 mM HEPES (pH 7.5), 140 mM NaCl buffer. The column was washed with three column volumes of 50 mM HEPES (pH 7.5), 140 mM NaCl and non-specific binding proteins were removed by washing with 50 mM HEPES (pH 7.5), 140 mM NaCl, and 20 mM Imidazole. To elute the desired hexahistidine tagged SlyD, a solution of 50 mM HEPES (pH 7.5), 140 mM NaCl, and 250 mM Imidazole was added to the column. The protein eluted at greater than 90% purity. […]

A further assay addresses T7, ACP (Escherichia coli, UniProt P0A6A8).
T7 construct: inferred for this product (C); purchased Invitrogen, Madison, Wis; P3080
The description is as above. Type of assay: binding. The following applies: 10 μM in SDS-PAGE sample buffer; ACP:SlyD approximately 2:1; FIG. 17. As to the method: ACP (Invitrogen, Madison, Wis., Catalog #P3080) was mixed at approximately 2:1 molar ratio with SlyD-His tag. The proteins were put in SDS-PAGE sample buffer supplemented with 10 μM FlAsH-EDT2, Cy3-EDT2, or Cy5-EDT2 and electrophoresed at 150 volts on a 4-20% Tris-glycine pre-cast Novex gel (Invitrogen, Carlsbad, Calif.). Immediately following electrophoresis the gel was imaged on a Fuji Film FLA 5000 laser gel scanner. […] Therefore, the SlyD tetracysteine sequence (SEQ. ID NO: 5) uniquely binds to biarsenical molecules and not to […].

T5 sequence (P0A9K9 with tags, fused parts or gaps): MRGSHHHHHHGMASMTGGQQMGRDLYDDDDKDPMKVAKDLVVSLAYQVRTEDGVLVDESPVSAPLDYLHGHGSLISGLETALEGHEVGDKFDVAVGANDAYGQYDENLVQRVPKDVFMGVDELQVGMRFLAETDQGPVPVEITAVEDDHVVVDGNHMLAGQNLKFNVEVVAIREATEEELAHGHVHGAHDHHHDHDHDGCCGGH
T7 sequence (P0A6A8 with tags, fused parts or gaps): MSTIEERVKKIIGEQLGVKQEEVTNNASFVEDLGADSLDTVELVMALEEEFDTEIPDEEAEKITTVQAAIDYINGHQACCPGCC
T2 sequence (P0A6A8 with tags, fused parts or gaps): as above

Regarding `O=C(O)c1ccccc1-c1c2ccc(=O)c([As]3SCCS3)c-2oc2c([As]3SCCS3)c(O)ccc12` [FlAsH-EDT2], the “labeling of the CCGGKGNGGCGC sequence (AcpS+4Cys)” value in assay [1] is on record as “equivalent labeling”. In assay [2], the “labeling of the CCPGCC sequence (ACP)” value is on record as “equivalent labeling”. In addition, on SlyD+His tag, the “labeling of SlyD+His tag” value is listed as “identical labeling”. The “labeling of SlyD-C167A/C168A” value at SlyD-C167A/C168A was “identical labeling”. In addition, the “labeling of SlyD-trunc171 (only a vicinal pair of cysteines)” value on SlyD-trunc171 is “only two cysteines are required for biarsenical labeling”. Also, in assay [3], the “binding/labeling of SlyD+His tag” value is “binds to both SlyD+His tag and ACP”. In addition, the “binding/labeling of ACP” value on ACP was “binds to both SlyD+His tag and ACP”.
